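Interpolation was linear, between the two tested concentrations surrounding the appropriate level; five concentrations were tested over 48 hours in 96-well plates. At the GI50, growth is halved. Definition used: TGI = concentration required for complete inhibition of growth.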
How the values were obtained:
Assay in all cases: NCI tumour cell line growth inhibition, 48 h
[1] = system: OVCAR-3 ovarian
[2] = system: A498 renal
[3] = system: SK-MEL-2 melanoma
[4] = system: SK-MEL-28 melanoma
[5] = system: LOX IMVI melanoma
[6] = system: COLO 205 colon
[7] = system: UACC-62 melanoma
[8] = system: OVCAR-4 ovarian
[9] = system: EKVX NSCLC
[10] = system: HT29 colon

| SMILES | TGI [1] [µM] | TGI [2] [µM] | TGI [3] [µM] | TGI [4] [µM] | TGI [5] [µM] | TGI [6] [µM] | TGI [7] [µM] | TGI [8] [µM] | TGI [9] [µM] | TGI [10] [µM] | GI50 [1] [µM] | GI50 [2] [µM] | GI50 [3] [µM] | GI50 [4] [µM] | GI50 [6] [µM] | GI50 [8] [µM] | GI50 [10] [µM] | GI50 [5] [µM] | GI50 [7] [µM] |
| --- | --- | --- | --- | --- | --- | --- | --- | --- | --- | --- | --- | --- | --- | --- | --- | --- | --- | --- | --- |
| Cc1ccc(Nc2nc(N)nc3c2ncn3C2OC(CO)C(O)C2O)cc1 (centres undefined) | > 100 | > 100 | > 100 | > 100 | > 100 | > 100 | > 100 | > 100 | > 100 | > 100 | – | – | – | – | – | – | – | – | – |
| C(=NCc1ccccc1)c1ccccc1-c1ccccc1C=NCc1ccccc1 | > 10 | > 10 | > 10 | > 10 | > 10 | > 10 | > 10 | > 10 | > 10 | > 10 | – | – | – | – | – | – | – | – | – |
| N=C(N)c1csc([C@@H]2O[C@H](CO)[C@@H](O)[C@H]2O)n1 | – | – | > 100 | > 100 | > 100 | – | – | > 100 | > 100 | – | – | – | – | – | – | – | – | – | – |
| CC(C)(C)[Si](C)(C)OCC1CCC(n2cnc3c(N)ncnc32)O1 (centres undefined) | > 100 | > 100 | > 100 | > 100 | > 100 | > 100 | > 100 | > 100 | – | > 100 | – | – | – | – | – | – | – | – | – |
| Cc1cccc2[s+]snc12 | > 89 | > 100 | > 100 | > 70.7 | > 100 | 50.8 | > 100 | > 100 | > 77.4 | > 100 | – | – | – | – | – | – | – | – | – |
| COC(=O)c1ccc(N=NN(C)COc2ccc([N+](=O)[O-])cc2)cc1 | > 100 | > 100 | > 100 | > 100 | > 100 | > 100 | > 100 | > 100 | > 100 | > 100 | – | – | – | – | – | – | – | – | – |
| O=C(O)C1Cc2c([nH]c3ccccc23)C=N1 (centres undefined) | > 100 | > 100 | > 100 | > 100 | > 100 | > 100 | > 100 | > 100 | > 100 | > 100 | – | – | – | – | – | – | – | – | – |
| O=C1c2ccccc2-c2ccc(N=Nc3c(O)ccc4ccccc34)cc21 | > 100 | > 100 | > 100 | > 100 | > 100 | > 100 | > 100 | > 100 | > 100 | > 100 | – | – | – | – | – | – | – | – | – |
| COc1cc(C2=C(C#N)C(N)OC3=C2COc2ccccc23)cc(OC)c1OC (centres undefined) | 34.3 | 56.3 | > 100 | > 100 | > 100 | > 100 | > 100 | 45.7 | 43.7 | > 100 | – | – | – | – | – | – | – | – | – |
| C/C(=N/O)c1cccc(Nc2nc3ccc(Cl)cc3c3[nH]c4ccccc4c23)c1 | 4.65 | – | 3.88 | 5.25 | 5.73 | 4.15 | 3.94 | 4.82 | – | 5.36 | – | – | – | – | – | – | – | – | – |
| c1cn2cc(-c3ccc4ncn(C5CCCCC5)c4c3)nc(-c3ccc4c(c3)ncn4C3CCCCC3)c2n1 | 3.36 | 3.22 | 3.35 | 3.41 | – | 3.79 | – | 6.3 | – | 5.2 | 1.83 | 1.77 | 1.74 | 1.81 | 1.93 | 2.17 | 2.44 | – | – |
| CC12CCC(C(=O)N3CC=CCC3)(OC1=O)C2(C)C (centres undefined) | > 100 | > 100 | > 100 | > 100 | > 100 | > 100 | > 100 | > 100 | > 100 | > 100 | – | – | – | – | – | – | – | – | – |
| CCC(=O)NC(Nc1ccc(O)cc1)(C(F)(F)F)C(F)(F)F | > 100 | > 100 | > 100 | > 100 | > 100 | – | > 100 | – | > 100 | > 100 | – | – | – | – | – | – | – | – | – |
| O=[N+]([O-])c1ccc(Nc2nc3ccccc3s2)cc1 | 57.7 | 92 | 81 | > 100 | 38.9 | – | 58.7 | > 100 | 40.4 | > 100 | – | – | – | – | – | – | – | – | – |
| Nc1ccc2c3c(n(CCCCl)c(=O)c2c1)-c1cc2c(cc1C3=O)OCO2 | > 100 | – | > 100 | > 100 | > 100 | > 100 | > 100 | – | – | > 100 | > 100 | – | > 100 | > 100 | > 100 | – | > 100 | > 100 | > 100 |
| O=C1C(=O)c2ccccc2C(O)=C1CN(CCCl)CCCl | > 100 | > 100 | > 100 | > 100 | – | – | > 100 | > 100 | > 100 | > 100 | – | – | – | – | – | – | – | – | – |
| COC1CC(OC2CCC3(C)C(CCC45CCC(C6=CC(=O)OC6)C(C)(CCC43)C5=O)C2)OC(C)C1O (centres undefined) | 82 | > 100 | > 100 | > 100 | > 100 | > 100 | > 100 | – | > 100 | > 100 | – | – | – | – | – | – | – | – | – |

Source: PubChem BioAssay (NCI)
